According to patent publication US6951943B2, “Process for the preparation of phenylalanine enamide derivatives” (Celltech R & D Limited, priority 2002, dated 2005):

Row | melting point | Structure (SMILES)
1 | 194 °C | CCOC(=O)[C@H](Cc1ccc(NC(=O)c2c(Cl)cncc2Cl)cc1)NC1=CC(=O)C12CCCCC2 [Example 1, Ethyl 2(S)-[(3-oxospiro[3.5]non-1-en-1-yl)amino]-3-{4-[(3,5-dichloroisonicotinoyl)amino]phenyl}propanoate]
2 | 112 °C | CCOC(=O)[C@H](Cc1ccc(Nc2nccc3ccncc23)cc1)NC1=CC(=O)C12CCOCC2 [Example 9, Ethyl 3-[4-([2,7]naphthyridin-1-ylamino)phenyl]-2(S)-[(3-oxo-7-oxa-spiro[3.5]non-1-en-1-yl)amino]propanoate]
3 | 221 °C | CCOC(=O)[C@H](Cc1ccc(Nc2nccc3ccncc23)cc1)NC1=C(SC(C)C)C(=O)C12CCOCC2 [Example 10, Ethyl 2(S)-[(2-isopropylsulfanyl-3-oxo-7-oxa-spiro[3.5]non-1-en-1-yl)amino]-3-[4-([2,7]naphthyridin-1-ylamino)phenyl]propanoate]
